Experiment [1] deals with H-9s. The experiment can be described thus: H-9s concentration after 3 days in low protein formulation with different BME concentrations. The format is cell-based, human. The settings on record: 20 μM, low protein amount formulation, p<0.01, t-test. An excerpt: FIG. 7: H-9s concentration after 3 days of culture in low protein based formulation with different BME concentrations. Error bars were generated through independent quadruplicates.
Having a meticulous comparison between all RCCDs performed, it was noticed that BME concentration was different due to supplier differences. […] Still, considering that BME is not just an antioxidant but a denaturizing chemical as well, it is expected that this compound would have a greater effect on media formulated with low amount of proteins.
Astonishingly, BME is normally added and recommended in KSR based media and feeder free media like mTeSR1 and StemPro. However, the negative effect of this compound is probably buffered by the huge amount of proteins that these media got, around 10 grams per liter, while the invention provides at least 20 times less. This discovery represents a breakthrough in terms of what are the real needs of an ES cell, drastically changing the media and cell's environment.

Experiment [2] deals with H-9 cells. The experiment can be described thus: Kinetic growth of H-9 cells on feeders in PB12/RCCD media formulations (Integral, Px,max, μ) with Statistica effect/regression models. The format is cell-based, human. The settings on record: codified values.
The test system of experiment [3] is H-9 cells. The experiment is described as above. Details: Effect on Integral / Effect on μ: unit not given here. The class given is cell-based, human. The settings on record: for Effect on Integral / Effect on Px, max / Effect on μ: PB12, level −1 to +1 (ranges Table 2), least square method; for Regression coefficient (Linear), Px, max / Regression coefficient (Quadratic), Px, max / Regression coefficient (Linear), Integral: 1st RCCD, codified values; for Regression coefficient (Linear), Px, max / Regression coefficient (Quadratic), Px, max: R^2 = 80.0%; for Regression coefficient (Linear), Integral: R^2 = 86.4%. An excerpt:
A Placket-Burman matrix of 12 independent conditions (PB12) was used (Table 1), according to the Design of Experiments (DOE) methodology for the screening of 8 factors (RODRIGUES & IEMMA, 2005). […] Since this first step, the PB12, is a screening step, whenever it was possible the concentration of the factor was set as zero. • Condition 0: represents the central condition of the DOE, being the mean value obtained from averaging the values for levels −1 and +1. In addition to the central condition, the “main” central condition is defined as a state when all factors are set to condition 0.
In total, 14 different conditions were examined: 12 related to the PB12 matrix, 1 related to the “main” central condition that was performed in quadruplicates for the error estimation and a control condition with KSR. The basal media was: a 1:1 mixture 1:1 of DMEM and Ham's F12 (DMEM/F12; Mediatech, Manassas, Va.; catalog number 10-092), 1% NEAA, 110 μM β-mercaptoethanol (BME; Sigma-Aldrich, St. Louis, Mo.; catalog number M7522), 50 μg/mL gentamicin sulfate (Mediatech, Manassas, Va.; catalog number 30-005-CR) and 8 ng/mL of FGF-2 (Peprotech, Rocky Hill, N.J.; catalog number 100-18B). FGF-2 was reconstituted in PBS at 100 ug/mL and was added to the media for a final concentration of 8 ng/mL at the start of the culture. During the culture period, additional FGF-2 (8 ng/mL) was added directly to the media on a daily basis.
Every 24 hours one well from each condition and 4 wells from the main central condition were enzymatic dissociated and counted with the help of an automatic counter (NucleoCounter NC-100), for an unbiased measure of cell growth. In that way, by the end of the 5 days, a kinetic curve was obtained for every single condition (FIG. 1). Readouts like integral of cells (integral; defined as area below the curve), maximum productivity (Px,max; defined as the highest value obtained from dividing cell number by time) or and specific global ( ) growth rate (or speed of cell growth obtained from the formula dX/dt=pX) were calculated in order to perform the statistics comparing all different curves (Table 3).
Through the estimation of the effects from the least square method and the calculation of the errors obtained by the replicates performed on the main central condition (formulation 13), “t” was calculated as the ratio of effect and error.
By comparing the calculated “t” value with “t” values from a Student's “t” distribution table for a bilateral distribution, the p-value was obtained for each parameter in every readout.
Aiming to understand better the contribution of each protein in the formulation of the media, an optimization step was performed using the Three-Variable Rotatable Central Composite Design (RCCD; Rodrigues and lemma, 2005). The concentration range of each supplement was the same as given in Table 2 for the PB12 design, with the same concentration for the level 0, −1, and +1 condition.
The basal media was: a 1:1 mixture 1:1 of DMEM and Ham's F12 (DMEM/F12; Mediatech, Manassas, Va.; catalog number 10-092), 1.5% NEAA, 8.46 mg/L citric acid, 0.89×10^−4 mM sodium selenite, 2 mM glutamine (total of 4.5 mM), BME 110 μM, gentamicin sulfate 50 μg/mL and 8 ng/mL of FGF-2.
As before, kinetics growth of H-9 cells were obtained and readouts like Integral and Px, max were calculated (Table 6).
Through the use of Statistica software (StatSoft, Tulsa, Okla.), a second order mathematical model was generated in order to evaluate the real contribution of each supplement (Table 7).

Experiment [4] has as its system H-9s. The conditions noted are these: extra amount of bicarbonate (2.4 g/L vs 1.2 g/L).
Procedure: A simple test was performed with KSR formulation, just changing basal media supplier and consequently just changing the amount of buffer.
The subject of experiment [5] is wild-type iPS line. The experiment can be described thus: Feeder free 2-variable RCCD (Activin A, TGF-beta-1): self-renew (final cell growth achieved). The class given is cell-based. The conditions noted are these: first feeder-free 2-variable RCCD, R^2 = 90.3%, p < 0.1; for Self-renew regression Coefficient (Linear): linear term of coded variable; for Self-renew regression Coefficient (Quadratic): quadratic term of coded variable. An excerpt: (§1) Aiming to improve the efficacy of the media, stimulating other pathways, besides the FGF-path, were explored. The Nodal/Activin pathway is related to pluripotency/self-renew (XIAO, 2006), than the factors from TGF superfamily. Activin A (Peprotech, Rocky Hill, N.J.; catalog number 120-14E) and TGF-beta-1 (Peprotech, Rocky Hill, N.J.; catalog number 100-21C), were investigated in a 2-variable RCCD (Table 20).
(§2) In these experiments, a wild-type iPS line was used. In the same fashion as the feeder conditions, cells were homogenously inoculated in several plates in each different formulation. The main difference in this step was the readout analyzed. Kinetic growth were not obtained due to the problems related to managing several feeder-free plates. Thus, instead of calculating integral and Px,max, two other readouts were used. The first one was the final cell growth achieved, called here as self-renew and the other one was percent of pluripotency, obtained from FACs analyzes by the dual staining with SSEA-4 and Nanog.
Analyzing the model, it is clear that TGF-beta-1 and Activin A have similar parameters. Additionally, they got a negative interaction with each other; meaning that, from an optimization point of view, if one is raised the other should be diminished. Taking a look into the surface gives a better clue of the best regions.

In experiment [6] the test system is wild-type iPS line. The experiment can be described thus: Feeder free 2-variable RCCD (Activin A, TGF-beta-1): percent of pluripotency, FACs dual staining SSEA-4 and Nanog. The conditions noted are these: p>0.1. The format is cell-based.
Excerpt: as §1, §2

Setting [7] is: RCCD for NEAA, citric acid and glutamine, R^2 = 89.5%.
[8] abbreviates: RCCD for NEAA, citric acid and glutamine, R^2 = 90.7%.

These results are taken from patent US9725695B2, “Stem cell defined media for xeno-free and feeder free conditions and uses thereof” (The Regents of the University of California, priority 2010, dated 2017).

With `OCCS` [BME, β-mercaptoethanol], the “effect on ES cell growth” value in the experiment with H-9s [1] is recorded as “statistically negative effect”.

Consider `O=C(O)CC(O)(CC(=O)O)C(=O)O` [Citric Acid, citric acid], for which, in the experiment with H-9 cells [2] (setting [7]), the “Regression coefficient (Linear), Px, max” value was −0.0020 and the “Regression coefficient (Quadratic), Px, max” value is −0.0104. In addition, in the experiment on H-9 cells [2] (setting [8]), the “Regression coefficient (Linear), Integral” value was determined as 1.63 and the “Regression coefficient (Quadratic), Integral” value is on record as −33.83. Moreover, in the experiment on H-9 cells [3], the “Effect on Integral” value came to 17.09; the “Effect on Px, max” value is listed as 0.0060; the “Effect on μ” value was found to be 0.0065.

Turning to `NCCO` [Etan., ethanolamine], in the experiment with H-9 cells [3], the “Effect on Integral” value is recorded as −0.56; the “Effect on Px, max” value is on record as −0.0055; the “Effect on μ” value is listed as 0.0006.

Regarding `NC(=O)CC[C@H](N)C(=O)O` [Glut, glutamine], in the experiment with H-9 cells [2] (setting [7]), the “Regression coefficient (Linear), Px, max” value was −0.0010 and the “Regression coefficient (Quadratic), Px, max” value was −0.0050. In addition, in the experiment on H-9 cells [2] (setting [8]), the “Regression coefficient (Linear), Integral” value is recorded as 2.10 and the “Regression coefficient (Quadratic), Integral” value is recorded as −10.20. Moreover, in the experiment on H-9 cells [3], the “Effect on Integral” value is −39.15; the “Effect on Px, max” value is recorded as −0.0088; the “Effect on μ” value was determined as 0.0023.

Consider `O=[Se]([O-])[O-].[Na+].[Na+]` [Selenite, sodium selenite], for which, in the experiment with H-9 cells [3], the “Effect on Integral” value was 7.46; the “Effect on Px, max” value is recorded as 0.0029; the “Effect on μ” value is on record as 0.0098.

Take `O=C([O-])O.[Na+]` [bicarbonate, sodium bicarbonate]: in the experiment on H-9s [4], the “cell growth with KSR formulation” value was “perform better”.

Turning to “Activin A: Activin A (Peprotech), factor from TGF superfamily”, in the experiment on wild-type iPS line [5], the “Self-renew regression Coefficient (Linear)” value was −0.430 and the “Self-renew regression Coefficient (Quadratic)” value is 0.798. Further, the “statistical relevance of model parameters for pluripotency” value in the experiment on wild-type iPS line [6] was “no parameters either related to Activin A or TGF-beta-1 that were statistically relevant”.

Turning to IGF-1, the “Regression coefficient (Quadratic), Integral” value in the experiment on H-9 cells [2] (1st RCCD, R^2 = 86.4%) is given as −1.19; with H-9 cells [2] (2nd RCCD, R^2 = 62.7%) it was −4.60; in the experiment on H-9 cells [2] (3rd RCCD, R^2 = 65.8%), 7.12; with H-9 cells [2] (4th RCCD, R^2 = […]), 10.30. For the same compound, the “Regression coefficient (Linear), Px, max” value with H-9 cells [2] (2nd RCCD, R^2 = 37.9%) was 0.0021; with H-9 cells [2] (3rd RCCD, R^2 = 86.4%), 0.0003; in the experiment with H-9 cells [2] (4th RCCD, R^2 = 69.0%) it was 0.0028; with H-9 cells [3] it was 0.0121. Besides, the “Regression coefficient (Quadratic), Px, max” value is −0.0011 in the experiment on H-9 cells [2] (2nd RCCD, R^2 = 37.9%); 0.0041 in the experiment with H-9 cells [2] (3rd RCCD, R^2 = 86.4%); 0.0046 in the experiment with H-9 cells [2] (4th RCCD, R^2 = 69.0%); −0.0036 with H-9 cells [3]. The “Regression coefficient (Linear), Integral” value in the experiment on H-9 cells [2] (2nd RCCD, R^2 = 62.7%) turned out to be 17.03; in the experiment with H-9 cells [2] (3rd RCCD, R^2 = 65.8%) it was 0.24; in the experiment with H-9 cells [2] (4th RCCD, R^2 = […]), 3.10; in the experiment with H-9 cells [3], 42.99. For the same compound, the “Effect on Integral” value in the experiment on H-9 cells [3] is 97.69. Moreover, the “Effect on Px, max” value in the experiment with H-9 cells [3] amounted to 0.0292. Moreover, the “Effect on μ” value in the experiment with H-9 cells [3] was found to be 0.0027.

For “TGF-beta-1: TGF-beta-1 (Peprotech), factor from TGF superfamily”, in the experiment with wild-type iPS line [6], the “statistical relevance of model parameters for pluripotency” value is “no parameters either related to Activin A or TGF-beta-1 that were statistically relevant”.

On to TGF-β-1, for which, in the experiment with wild-type iPS line [5], the “Self-renew regression Coefficient (Linear)” value is −0.508 and the “Self-renew regression Coefficient (Quadratic)” value was 0.936.

“Transf.: CellPrime rTransferrin AF recombinant human transferrin (Millipore)”: the “Regression coefficient (Quadratic), Integral” value in the experiment on H-9 cells [2] (1st RCCD, R^2 = 86.4%) was 4.06; with H-9 cells [2] (2nd RCCD, R^2 = 62.7%) it was 5.70; with H-9 cells [2] (3rd RCCD, R^2 = 65.8%), 3.59; in the experiment on H-9 cells [2] (4th RCCD, R^2 = […]) it was −14.34. Also, the “Regression coefficient (Linear), Px, max” value with H-9 cells [2] (2nd RCCD, R^2 = 37.9%) is 0.0027; in the experiment on H-9 cells [2] (3rd RCCD, R^2 = 86.4%), 0.0013; with H-9 cells [2] (4th RCCD, R^2 = 69.0%) it was 0.0021; with H-9 cells [3], 0.0107. Moreover, the “Regression coefficient (Quadratic), Px, max” value with H-9 cells [2] (2nd RCCD, R^2 = 37.9%) is on record as −0.0014; with H-9 cells [2] (3rd RCCD, R^2 = 86.4%) it was 0.0018; in the experiment with H-9 cells [2] (4th RCCD, R^2 = 69.0%), −0.0034; in the experiment with H-9 cells [3], 0.0028. Besides, the “Regression coefficient (Linear), Integral” value in the experiment on H-9 cells [2] (2nd RCCD, R^2 = 62.7%) stood at 18.70; in the experiment on H-9 cells [2] (3rd RCCD, R^2 = 65.8%) it was 4.61; with H-9 cells [2] (4th RCCD, R^2 = […]), 1.17; in the experiment with H-9 cells [3], 43.29. For the same compound, the “Effect on Integral” value in the experiment with H-9 cells [3] is on record as 65.44. For the same compound, the “Effect on Px, max” value in the experiment with H-9 cells [3] is recorded as 0.0189. For the same compound, in the experiment with H-9 cells [3], the “Effect on μ” value was found to be 0.0169.
